Data on three compounds can be found in US20240197729A1, “ALK-5 Inhibitors and Uses Thereof” (Sumitomo Pharma Oncology, Inc., priority 2021, published 2024).

The test system of data set [1] is BMP-6/ALK2/Hepcidin pathway. Briefly: ALK2 off-target assay, hepcidin mRNA in HepG2 hepatocytes. Format: cell-based, human. The note with it: HepG2, 40 ng/ml BMP-6, 3 h; read-out: IC50, hepcidin mRNA expression. As for the experimental part:
In this study, LDN214117 (an ALK2 inhibitor available from Selleck Chemicals S7627) was included as a positive control, and vactosertib (an ALK5 inhibitor available from MedChem Express HY-19928) was included as a negative control.
HepG2 human hepatocytes (ATCC HB-8065) were seeded in EMEM (ATCC30-2003)+10% FBS in 96-well plate and allowed to grow overnight at 5% CO2 at 37° C. The next day, cells were pre-treated with selected compounds (Compound 01, 04 or 05) or one of the control compounds at various concentrations, or with vehicle (DMSO) for one hour. Cells were then stimulated with recombinant human BMP-6 (R&D Systems 507-BP-020) at a final concentration of 40 ng/ml, in the presence of test compound or DMSO for three hours. A no-BMP-6 stimulation condition was included for baseline hepcidin level measurement.
Hepcidin mRNA expression was measured by real-time RT-PCR with Cells-to-CT 1-Step TaqMan Kit (ThermoFisher A25603) following manufacturer's instructions. GAPDH levels were measured, and served as a normalization control. Hepcidin primer: TaqMan HAMP-FAM/MGB 20×(ThermoFisher 4331182); GAPDH primer: TaqMan GAPDH-VIC/MGB 20×(ThermoFisher 4326317E). Delta-delta Ct method was used to obtain relative Hepcidin expression.
The selected compounds and control compounds LDN214117 and vactosertib were tested at drug concentrations of 20 micromolar to 1.22 nanomolar at 4-fold serial dilution. All wells contained the same DMSO concentrations. IC50 values were calculated using nonlinear regression model with GraphPad Prism software. The results of the ALK-2 off-target assay are reported in Table 3B, where “++” indicates 0.1 μM<IC50≤1 μM and “+++” indicates […].

Another data set deals with JAK signaling. Briefly: JAK selectivity assay, HEK blue IL-12 reporter. To be noted: 12.5 ng/ml IL-12, 24 h. Format: cell-based. Here is the method: The cells were purchased from Invivogen (Catalog Nr: hkb-il12) and maintained according to vendor instructions. On the day of the experiment, cells were harvested by repeated tapping of the flask to shake loose the cells attached to the bottom of the flask. Then, cells were harvested, washed and resuspended in DMEM media supplemented with 10% fetal calf serum. 30 Microliters of cell suspension was seeded into a 384-well tissue culture-coated plate containing approximately 10,000 total cells. […] Using the ECHO “Dose Response” software, the test compound was added in duplicate wells with a 3-fold dilution curve. DMSO was back-filled to normalize the DMSO across all wells. […] After 30 minutes of incubation at room temperature, the optical density was measured at 620 nanometer using the Perkin Elmer Envision plate reader. A color change can be detected at this wavelength when secreted alkaline phosphatase, which is triggered by IL-12 signaling, is present in the supernatant. […]

Another data set relates to p-STAT3 (Tyr 705). Briefly: A549 xenograft assay, p-STAT3. Format: in vivo, mice. The text has this: (§1) To test compounds for inhibition of in vivo on-target activity (ALK5/TGF-bR1 inhibition) as well as potential Janus Kinase (JAK) signaling off-target activity, the A549 murine xenograft model was utilized. An ALK5 inhibitor (e.g., vactosertib) is expected to reduce the amount of the TGF-beta signaling molecule phospho-SMAD-2 (pSMAD2) in the A549 xenograft cells. The TGF-beta-mediated phosphorylation of SMAD2 in A549 cells takes place at amino acid residue four hundred and sixty-five and four hundred and sixty-seven (both are serine residues). A JAK inhibitor (e.g., ruxolitinib) is expected to reduce the phosphorylation of signal transducer and activator of transcription (STAT) proteins such as STAT3 at amino acid residue 705 (tyrosine).
(§2) At eight weeks of age, female athymic nude mice (purchased from Charles River) were injected with approximately 3.5 million A549 cells (ATCC, CCL-185). Specifically, cells were harvested and resuspended in plain RPMI media (no phenol red added) and Matrigel (Corning 356237) at a one to one ratio, and two hundred-microliters were injected into the right hind flank of each mouse. Tumors were measured every three days by caliper and as tumors reached an average of seventy-eighty millimeters cubed, mice were randomized in groups of three. All compounds were resuspended in 1-methyl-2-pyrrolidinone (Sigma 494496) (10%) plus 20% Solutol (Sigma 42966) in water (90%). Vactosertib and ruxolitinib were included as controls as ALK5 signaling inhibitor and JAK signaling inhibitor, respectively. Both controls were given at seventy-five milligrams per kilogram to three mice. The drug suspensions were sonicated for fifteen minutes to generate a fine particle suspension before being given to the mice. Mice were dosed (per oral gavage) with drug at one hundred, seventy-five, fifty, or ten milligrams per kilogram, with three mice per group. A vehicle control group with three mice was used to establish the baseline level of phospho-SMAD-2 in the tumor xenograft.
(§3) Four hours after drug administration, tumors were harvested, snap frozen and stored at negative eighty degrees Celsius until further processing. The phospho-SMAD-2 levels were determined using the Bio-Plex Pro™ Phospho-Smad2 (Ser465/Ser467) Set (BioRad 171V50019M). The phospho STAT3 levels were determined using the bead/antibody set from the MILLIPLEXMAP STAT Cell Signaling Magnetic Bead 5-Plex Kit (Millipore 48-610MAG). Both phospho SMAD-2 levels and phospho STAT3 levels were normalized to ß-Tubulin (MILLIPLEX MAP ß-Tubulin Total Magnetic Bead MAPmate™, Millipore 46-713MAG) or GAPDH (MILLIPLEX MAP GAPDH Total Magnetic Bead MAPmate™, Millipore 46-667MAG) levels from each sample. All analytes were analyzed in a multiplex fashion with the Bio-Plex Pro Cell Signaling Reagent Kit (BioRad 171304006M). Briefly, frozen tumor (fifteen to thirty milligrams) was lysed in 100 μl lysis buffer, processed in bead mill tube, and centrifuged. The resulting lysate was used at 1:50 dilution for the assay according to the manufacturer's instructions. Bead suspension was analyzed using the Luminex system (MAGPIX).

For data set [2], the system named is phospho-SMAD-2 (Ser465/Ser467). Briefly: A549 xenograft assay, p-SMAD2. Format: in vivo, mice. To be noted: 75 mg/kg per oral gavage, tumors 4 h after dosing.
Source text: as §1, §2, §3

Data set [3] deals with TGF-β1-mediated αSMA expression. Briefly: Fibroblast to myofibroblast transformation (FMT) assay. To be noted: for IC50: Homo sapiens, Fibroblast.
Method: (§4) To test the ability of selected compounds to inhibit the TGF-β1-dependent transition of fibroblasts to myofibroblasts in a relevant disease model of IPF, an FMT assay was performed using lung fibroblasts from IPF patients. In this assay, the transition of fibroblasts to myofibroblasts is determined by the expression of the biomarker alpha smooth muscle actin (α-SMA).
(§5) Primary human bronchial fibroblasts derived from IPF patients were seeded on day zero and the media was refreshed on day two. On day five, selected compounds or controls were added at an eight-point concentration response curve starting at 10 μM (semi-log dilutions). Each drug concentration condition was evaluated in biological duplicates. […] Seventy-two hours following TGF-beta addition, the cells were fixed with formaldehyde. High content imaging evaluating cell number using the nuclear stain DAPI as well as the expression of a-SMA was performed. The following controls were run alongside the selected compounds: vactosertib and the approved IPF drug nintedanib (at an eight-point, semi-log curve with 10 μM starting concentration). As a negative control 0.1% DMSO was also used, matching the DMSO concentration in treated wells. The following calculations were used to determine cell number as well as percent inhibition (PIN) of alpha SMA expression:
(§6) • Segmentation and quantification of αSMA immunoreactivity by an HCA algorithm, with density×area (D×A) output • Data normalization of raw αSMA (D×A) to percentage inhibition (PIN) values, on a plate-to-plate basis
(§7) • DAPI fluorescence applied for HCA-based quantification of the number of imaged cells, on a plate-to-plate basis
(§8) [formula] • μn is the average numbers of nuclei of the vehicle control (TGF-β1+0.1% DMSO) • Xi is the compound number of nuclei
Data set [4] has the same test system. To be noted: human, 73 h.
Method: as §4, §5, §6, §7, §8

Read-outs that look alike come from different tables or passages of the source.

Regarding `COc1cc(-c2cc(-c3ccc(N4CCNCC4)cc3)cnc2C)cc(OC)c1OC` [LDN214117, reference compound], the IC50 in data set [1] was in the range of 100 to 1000 nM.
`N#CC[C@H](C1CCCC1)n1cc(-c2ncnc3[nH]ccc23)cn1` [Ruxolitinib, ruxolitinib, reference compound]: the IC50 with JAK signaling worked out at 31 nM. The “Average % p-STAT3 (Tyr 705) of vehicle” value in the data set with p-STAT3 (Tyr 705) (75 mg/kg per oral gavage, tumors 4 h after dosing) is recorded as 10%. The “inhibition of the phosphorylation of STAT3 in tumor samples” value in the data set with p-STAT3 (Tyr 705) (75 milligrams per kilogram) was found to be 90%. The “Average % p-SMAD2 (Ser 465/467) of vehicle” value in data set [2] came to 120%.
Consider `COC(=O)c1ccc2c(c1)NC(=O)/C2=C(\Nc1ccc(N(C)C(=O)CN2CCN(C)CC2)cc1)c1ccccc1` [Nintedanib, nintedanib, reference compound], for which the IC50 in data set [3] (read-out: Average IC50 (nM), average of donors IPF03, IPF06, IPF08) is 833 nM; in data set [3] (read-out: IC50 αSMA, donor IPF03) it was 600 nM; in data set [3] (read-out: IC50 αSMA, donor IPF06), 1500 nM; in data set [3] (read-out: IC50 αSMA, donor IPF08), 400 nM; in data set [3] (read-out: pIC50 αSMA, donor IPF03 (converted)), 631 nM; in data set [3] (read-out: pIC50 αSMA, donor IPF06 (converted)) it was 1580 nM. Also, the IC50 in data set [3] (read-out: pIC50 αSMA, donor IPF08 (converted)) is 398 nM. The “Max PIN (%)” value in data set [3] (donor IPF03) is 90%; in data set [3] (donor IPF06) it was 104%; in data set [3] (donor IPF08), 94%. Besides, the Potentially toxic concentration in data set [4] is reported as 5.0.
